Test results from patent publication US20260151406A1, “COMPOSITION FOR PREVENTING OR TREATING PERIODONTITIS COMPRISING CANNABIDIOL AND TAURINE” (MBP CO., LTD., priority 2022, published 2026).

How the values were obtained:
Format in all cases: cell-based
[1] = tested on: Raw264.7 cells; test: Evaluation of cytotoxicity (intracellular toxicity); settings: CBD alone (FIG. 1)
Description: For CBD and taurine, intracellular toxicity evaluation was performed on osteoclasts (Raw264.7 cells), which are inflammatory cells, and the results are shown in FIG. 1. […] The appropriate concentrations of CBD (10 uM) and Taurine (0.5 mM) were determined, and intracellular toxicity evaluation according to subsequent combined treatment was performed.

[2] = tested on: TRAP-positive cell formation in macrophages; test: Inhibition of TRAP-positive cell formation by RANKL during osteoclast differentiation; settings: osteoclast differentiation (FIG. 3)
Description: (§1) To confirm the inhibitory effect of CBD and taurine on bone loss caused by periodontitis, the degree of TRAP formation and bone loss by RANKL (receptor activator of nuclear factor-KB ligand) was analyzed through pit formation area analysis.
As a result of analyzing the degree of inhibition of TRAP-positive cell formation by RANKL during osteoclast differentiation, it was confirmed that the inhibition efficacy of TRAP-positive cell formation was very low when CBD or taurine was used alone, but the inhibition efficacy of TRAP-positive cell formation was very high when CBD and taurine were used in combination (FIG. 3).

[3] = tested on: bone loss by RANKL in macrophages; test: Inhibition of bone loss by RANKL in macrophages (pit formation area analysis); settings: pit formation area (FIG. 4)
Description: as §1
To further confirm the bone loss inhibition efficacy of CBD and taurine, the degree of inhibition of bone loss by RANKL in macrophages was analyzed.

| Compound | concentration up to which there was no intracellular toxicity [1] | inhibition efficacy of TRAP-positive cell formation [2] | bone loss inhibition efficacy [3] |
| --- | --- | --- | --- |
| C=C(C)[C@@H]1CCC(C)=C[C@H]1c1c(O)cc(CCCCC)cc1O [CBD, Cannabidiol] | ≤ 12 µM | very low | almost none or very low |
| NCCS(=O)(=O)O [taurine] | – | very low | almost none or very low |
